Test results from a compilation of properties of binary mixtures (doi:10.1016/j.molliq.2011.09.019).

Test: xn = mol fraction of the nth substance listed
Details: 101 kPa

CS(C)=O + CC(=O)[O-].CC[NH2+]CC
x1 = 1
Details	speed of sound [m/s]	viscosity [mPa·s]
298.15 K	1496	1.99
303.15 K	1472	1.79
308.15 K	1460	1.65

CC(=O)[O-].CC[NH2+]CC + CS(C)=O
Details	speed of sound, 298.15 K [m/s]	speed of sound, 303.15 K [m/s]	speed of sound, 308.15 K [m/s]	viscosity, 298.15 K [mPa·s]	viscosity, 303.15 K [mPa·s]	viscosity, 308.15 K [mPa·s]
x1 = 0.0144	1500	1478	1469	2.24	2.04	1.9
x2 = 0	1608	1604	1599	16.36	13.64	11.83
x2 = 0.0253	1606	–	1594	16.01	–	11.6
x2 = 0.0627	1604	1599	1594	15.5	12.96	11.27
x2 = 0.1132	1601	1597	1592	14.83	12.44	10.86
x2 = 0.1535	1599	1595	–	14.29	12.02	–
x2 = 0.2023	–	1594	1589	–	11.54	10.14
x2 = 0.2458	1597	1593	1588	13.11	11.1	9.76
x2 = 0.2814	–	1592	–	–	10.73	–
x2 = 0.3244	1596	1591	1584	12.13	10.28	9.1
x2 = 0.3701	1595	1590	1582	11.56	9.82	8.7
x2 = 0.4864	1593	1582	1574	10.09	8.64	7.69
x2 = 0.5897	–	1572	1562	–	7.51	6.74
x2 = 0.66	–	1564	1554	–	6.72	6.08
x2 = 0.7253	1572	–	1544	6.74	–	5.4
x2 = 0.7851	–	1540	1530	–	5.17	4.77
x2 = 0.8406	1546	–	1516	4.91	–	4.11
x2 = 0.8923	1532	1512	1502	3.98	3.67	3.45
x2 = 0.9248	1522	–	1490	3.39	–	2.95
x2 = 0.956	1513	1491	1480	2.81	2.61	2.48
x2 = 0.971	–	1485	1474	–	2.32	2.18
